Assay results as given in article PMC4664966, “Discovery and characterization of novel inhibitors of the sodium-coupled citrate transporter (NaCT or SLC13A5)” (Scientific Reports, 2015).

Experiments:
ATP-citrate lyase = ATP-citrate lyase (Homo sapiens, UniProt P53396); experiment: ATP-citrate lyase interaction/inhibition; format: biochemical
[1] = target: Neurokinin receptor 1 (NK1) (Homo sapiens, UniProt P25103); experiment: Selectivity data (Table S1); format: binding
[2] = target: Serotonin receptor 2A (5-HT2A) (Homo sapiens, UniProt P28223); experiment: Selectivity data (Table S1); format: binding
[3] = Intra-/extracellular unbound concentration ratio (Kpuu) in human hepatocytes; format: in vitro ADME; settings: cryopreserved hepatocytes, ratio of free intracellular and media concentration after 1 h incubation at 1 μM, geometric mean of 3 replicates ± SD
Procedure: kpuu values were determined by measuring total cell and media concentrations corrected for their respective fraction unbound. Detailed methods to determine intra- and extracellular concentrations of compound in the HEKNaCT cells and human hepatocytes will be the subject of a separate manuscript that is under preparation. […]
Intra- and extracellular concentrations of compound in cellular assays. kpuu values were determined by measuring total cell and media concentrations corrected for their respective […]
fraction unbound. […]
The solution was heated to reflux until the total volume was reduced to ~25 mL.
Hexane (25 mL) was added and the mixture was brought back to reflux than allowed to slowly cool to room temperature. After standing at room temperature for 16 h, the resulting suspension was filtered and dried under high vacuum to yield (S)-2-(4-(tert-butyl)phenethyl)-2-hydroxysuccinic acid (3) as a white solid. The filtrate was allowed to stand at room temperature for 4 days. The solvent evaporated to ~15 mL and large, colorless crystals formed.
X-ray analysis. Data collection was performed on a Bruker APEX diffractometer at room temperature. Data collection consisted of 3 omega scans and low angle and three at high angle; each with 0.5 step. In addition, 2 phi scans were collected to improve the quality of the […]

[4] = target: Arginine vasopressin receptor 1A (AVPR1A) (Homo sapiens, UniProt P37288); experiment: Selectivity data (Table S1); format: binding
Sequence of Arginine vasopressin receptor 1A (AVPR1A) (P37288 whole entry): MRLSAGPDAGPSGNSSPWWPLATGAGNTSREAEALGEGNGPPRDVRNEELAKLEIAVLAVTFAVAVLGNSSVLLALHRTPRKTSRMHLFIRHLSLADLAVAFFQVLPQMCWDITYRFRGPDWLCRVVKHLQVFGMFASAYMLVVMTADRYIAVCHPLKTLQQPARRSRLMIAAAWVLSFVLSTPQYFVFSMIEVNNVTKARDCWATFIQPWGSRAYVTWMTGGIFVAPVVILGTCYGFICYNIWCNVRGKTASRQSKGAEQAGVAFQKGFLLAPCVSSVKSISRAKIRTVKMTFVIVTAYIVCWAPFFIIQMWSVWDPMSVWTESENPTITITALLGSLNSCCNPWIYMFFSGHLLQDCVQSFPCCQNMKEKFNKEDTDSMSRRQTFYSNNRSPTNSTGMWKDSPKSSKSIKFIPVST

[5] = target: Gamma-aminobutyric acid receptor A, alpha 1 (GABRA1) (Homo sapiens, UniProt P14867+P47870); experiment: Selectivity data (Table S1); format: binding
[6] = target: Adrenergic receptor, alpha-2B (ADRA2B) (Homo sapiens, UniProt P18089); experiment: Selectivity data (Table S1); format: binding
[7] = target: Adrenergic receptor, alpha-1A (ADRA1A) (Homo sapiens, UniProt P35348); experiment: Selectivity data (Table S1); format: binding
Sequence of Adrenergic receptor, alpha-1A (ADRA1A) (P35348 whole entry): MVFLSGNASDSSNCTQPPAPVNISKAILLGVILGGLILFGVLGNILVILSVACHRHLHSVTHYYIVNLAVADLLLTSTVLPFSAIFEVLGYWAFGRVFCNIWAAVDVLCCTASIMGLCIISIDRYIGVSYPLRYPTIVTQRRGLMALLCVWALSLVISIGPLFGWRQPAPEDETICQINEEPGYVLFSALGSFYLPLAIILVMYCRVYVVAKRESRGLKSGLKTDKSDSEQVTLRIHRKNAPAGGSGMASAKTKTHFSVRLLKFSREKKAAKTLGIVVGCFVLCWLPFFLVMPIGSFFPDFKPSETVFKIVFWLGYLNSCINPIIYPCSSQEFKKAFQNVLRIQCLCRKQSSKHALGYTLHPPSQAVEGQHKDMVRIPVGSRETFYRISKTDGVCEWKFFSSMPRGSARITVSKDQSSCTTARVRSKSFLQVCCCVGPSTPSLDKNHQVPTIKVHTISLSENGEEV

[8] = target: Potassium voltage-gated channel, KQT-like subfamily, member 1 (KCNQ1) (Homo sapiens, UniProt P51787); experiment: in vitro
Sequence of Potassium voltage-gated channel, KQT-like subfamily, member 1 (KCNQ1) (P51787 whole entry): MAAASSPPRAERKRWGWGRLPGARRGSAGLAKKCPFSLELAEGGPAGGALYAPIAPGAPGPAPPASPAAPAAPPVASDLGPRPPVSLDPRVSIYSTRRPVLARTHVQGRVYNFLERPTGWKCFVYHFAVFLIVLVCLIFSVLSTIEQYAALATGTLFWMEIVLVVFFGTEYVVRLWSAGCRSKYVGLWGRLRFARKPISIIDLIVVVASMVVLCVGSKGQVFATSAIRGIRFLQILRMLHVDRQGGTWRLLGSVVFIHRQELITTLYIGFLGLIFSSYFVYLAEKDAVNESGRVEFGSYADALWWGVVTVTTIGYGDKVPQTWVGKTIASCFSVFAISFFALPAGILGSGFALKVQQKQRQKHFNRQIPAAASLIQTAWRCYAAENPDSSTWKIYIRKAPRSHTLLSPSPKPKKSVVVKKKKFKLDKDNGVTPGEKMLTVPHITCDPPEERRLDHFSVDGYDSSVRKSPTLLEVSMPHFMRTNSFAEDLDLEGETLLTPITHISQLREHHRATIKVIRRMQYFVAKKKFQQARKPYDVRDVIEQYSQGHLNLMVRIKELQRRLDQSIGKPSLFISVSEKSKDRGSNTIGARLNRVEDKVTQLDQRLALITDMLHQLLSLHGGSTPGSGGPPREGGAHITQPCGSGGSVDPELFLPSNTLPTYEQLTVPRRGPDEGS

[9] = target: ATP-binding cassette, sub-family B, member 11 (ABCB11) (Homo sapiens, UniProt O95342); experiment: Selectivity data (Table S1)
Sequence of ATP-binding cassette, sub-family B, member 11 (ABCB11) (O95342 whole entry, species assumed): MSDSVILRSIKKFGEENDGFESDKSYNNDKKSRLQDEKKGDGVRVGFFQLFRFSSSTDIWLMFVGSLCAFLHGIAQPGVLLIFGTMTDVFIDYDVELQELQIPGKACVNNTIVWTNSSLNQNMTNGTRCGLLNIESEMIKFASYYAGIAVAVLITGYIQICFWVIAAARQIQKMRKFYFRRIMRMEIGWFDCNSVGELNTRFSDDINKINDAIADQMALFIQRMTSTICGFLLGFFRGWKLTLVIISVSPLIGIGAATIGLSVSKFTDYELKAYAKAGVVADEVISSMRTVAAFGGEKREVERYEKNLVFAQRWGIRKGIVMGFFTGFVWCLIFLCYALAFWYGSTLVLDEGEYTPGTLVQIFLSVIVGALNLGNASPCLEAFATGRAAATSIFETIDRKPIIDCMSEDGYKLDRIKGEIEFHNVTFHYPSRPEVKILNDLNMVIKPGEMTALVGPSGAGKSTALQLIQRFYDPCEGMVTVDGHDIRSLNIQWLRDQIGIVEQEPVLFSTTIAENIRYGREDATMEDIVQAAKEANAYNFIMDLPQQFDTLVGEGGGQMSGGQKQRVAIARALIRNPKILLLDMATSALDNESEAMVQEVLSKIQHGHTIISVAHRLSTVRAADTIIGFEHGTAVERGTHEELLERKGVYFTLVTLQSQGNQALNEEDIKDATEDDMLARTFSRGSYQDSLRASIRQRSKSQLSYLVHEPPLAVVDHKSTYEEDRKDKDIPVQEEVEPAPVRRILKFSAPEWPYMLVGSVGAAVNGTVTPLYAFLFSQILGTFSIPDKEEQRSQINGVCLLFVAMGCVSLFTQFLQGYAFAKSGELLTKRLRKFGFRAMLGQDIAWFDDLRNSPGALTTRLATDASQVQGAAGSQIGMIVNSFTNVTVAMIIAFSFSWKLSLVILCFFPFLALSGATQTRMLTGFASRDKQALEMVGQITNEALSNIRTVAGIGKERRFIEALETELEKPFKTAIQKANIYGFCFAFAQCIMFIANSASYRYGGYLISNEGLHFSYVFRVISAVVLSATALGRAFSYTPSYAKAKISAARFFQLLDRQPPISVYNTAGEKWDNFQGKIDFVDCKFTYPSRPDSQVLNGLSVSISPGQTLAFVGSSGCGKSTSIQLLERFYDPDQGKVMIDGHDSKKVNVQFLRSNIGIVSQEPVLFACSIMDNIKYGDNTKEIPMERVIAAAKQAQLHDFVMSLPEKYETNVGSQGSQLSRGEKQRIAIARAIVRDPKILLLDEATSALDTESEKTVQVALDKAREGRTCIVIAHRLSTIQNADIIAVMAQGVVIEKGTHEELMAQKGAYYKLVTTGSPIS

[10] = target: Phosphodiesterase 3B (PDE3B) (Homo sapiens, UniProt Q13370); experiment: Selectivity data (Table S1); format: biochemical
[11] = target: Angiotensin-converting enzyme 1 (ACE1) (Homo sapiens, UniProt P12821); experiment: Selectivity data (Table S1); format: biochemical
Dopamine receptor 1 (D1) = Dopamine receptor 1 (D1) (Homo sapiens, UniProt P21728); experiment: Selectivity data (Table S1); format: binding
[12] = target: Monoacylglycerol acyltransferase 1 (MGAT1) (Homo sapiens, UniProt Q96PD6); experiment: Selectivity data (Table S1); format: biochemical
[13] = target: Lymphocyte-specific protein tyrosine kinase (LCK) (Homo sapiens, UniProt P06239); experiment: Selectivity data (Table S1); format: biochemical
DIO mice = experiment: Plasma glucose concentrations in DIO mice, acute or sub-chronic dosing; settings: single 250 mg/kg dose or 3 days 250 mg/kg BID
[14] = target: Noradrenaline transporter, sodium-dependent (NAT) (Homo sapiens, UniProt P23975); experiment: Selectivity data (Table S1)
Sequence of Noradrenaline transporter, sodium-dependent (NAT) (P23975 whole entry): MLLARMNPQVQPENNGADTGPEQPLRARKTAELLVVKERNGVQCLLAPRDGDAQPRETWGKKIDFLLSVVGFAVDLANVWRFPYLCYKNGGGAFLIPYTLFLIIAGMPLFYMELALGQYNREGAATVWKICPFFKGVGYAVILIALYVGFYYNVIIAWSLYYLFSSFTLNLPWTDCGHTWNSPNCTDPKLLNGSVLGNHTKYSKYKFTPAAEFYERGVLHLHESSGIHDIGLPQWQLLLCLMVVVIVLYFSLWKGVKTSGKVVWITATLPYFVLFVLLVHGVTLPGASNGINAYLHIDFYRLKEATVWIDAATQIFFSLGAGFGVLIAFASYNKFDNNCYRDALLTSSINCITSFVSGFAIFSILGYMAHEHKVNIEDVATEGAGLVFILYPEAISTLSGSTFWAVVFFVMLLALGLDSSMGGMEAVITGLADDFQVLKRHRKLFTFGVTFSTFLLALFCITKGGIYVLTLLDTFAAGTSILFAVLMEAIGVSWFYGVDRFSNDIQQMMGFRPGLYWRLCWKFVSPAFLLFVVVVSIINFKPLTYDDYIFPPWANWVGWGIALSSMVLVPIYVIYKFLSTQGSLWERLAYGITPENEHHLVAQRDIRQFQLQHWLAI

[15] = target: Cholecystokinin receptor B (CCKBR) (Homo sapiens, UniProt P32239); experiment: Selectivity data (Table S1); format: binding
CYP2D6 = CYP2D6 (Homo sapiens, UniProt P10635); experiment: Selectivity data (Table S1); format: in vitro ADME; settings: 3 µM
[16] = target: Cytochrome P450 2D6 (CYP2D6) (Homo sapiens, UniProt P10635); experiment: Selectivity data (Table S1); format: in vitro ADME
[17] = target: Cytochrome P450 2C8 (CYP2C8) (Homo sapiens, UniProt P10632); experiment: Selectivity data (Table S1); format: in vitro ADME
CYP2C8 = CYP2C8 (Homo sapiens, UniProt P10632); experiment: Selectivity data (Table S1); format: in vitro ADME; settings: 3 µM
[18] = target: Sodium channel, neuronal alpha-subunit (NaV1.1) (Homo sapiens, UniProt P35498); experiment: Selectivity data (Table S1)

Sequence of ATP-citrate lyase (P53396 whole entry): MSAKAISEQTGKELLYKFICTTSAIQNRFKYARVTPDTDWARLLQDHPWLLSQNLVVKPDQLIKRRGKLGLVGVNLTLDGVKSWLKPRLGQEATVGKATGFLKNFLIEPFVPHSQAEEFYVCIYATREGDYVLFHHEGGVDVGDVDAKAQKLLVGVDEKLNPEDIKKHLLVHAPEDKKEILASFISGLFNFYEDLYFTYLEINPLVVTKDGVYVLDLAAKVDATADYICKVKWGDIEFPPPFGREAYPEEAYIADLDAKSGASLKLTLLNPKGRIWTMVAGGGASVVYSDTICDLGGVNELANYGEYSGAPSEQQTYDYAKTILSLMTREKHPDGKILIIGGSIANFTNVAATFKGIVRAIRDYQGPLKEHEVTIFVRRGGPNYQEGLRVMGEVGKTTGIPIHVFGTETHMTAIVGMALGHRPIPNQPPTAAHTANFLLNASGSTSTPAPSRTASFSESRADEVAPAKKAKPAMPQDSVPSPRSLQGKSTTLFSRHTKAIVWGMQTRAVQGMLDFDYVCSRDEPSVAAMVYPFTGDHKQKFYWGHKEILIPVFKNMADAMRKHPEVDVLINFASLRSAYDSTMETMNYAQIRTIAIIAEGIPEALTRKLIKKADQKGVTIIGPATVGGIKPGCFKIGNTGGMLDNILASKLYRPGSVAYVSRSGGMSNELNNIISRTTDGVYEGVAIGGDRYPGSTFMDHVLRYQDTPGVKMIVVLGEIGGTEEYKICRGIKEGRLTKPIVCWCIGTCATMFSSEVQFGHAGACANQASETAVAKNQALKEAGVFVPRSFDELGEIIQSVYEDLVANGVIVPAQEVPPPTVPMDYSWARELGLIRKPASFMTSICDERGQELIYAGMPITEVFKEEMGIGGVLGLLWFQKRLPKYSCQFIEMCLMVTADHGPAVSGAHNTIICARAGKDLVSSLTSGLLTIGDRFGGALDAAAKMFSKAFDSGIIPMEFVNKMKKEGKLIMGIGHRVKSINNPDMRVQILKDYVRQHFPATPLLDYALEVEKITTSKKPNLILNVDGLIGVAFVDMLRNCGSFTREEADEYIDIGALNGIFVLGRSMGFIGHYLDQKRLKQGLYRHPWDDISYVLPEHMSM
Sequence of Neurokinin receptor 1 (NK1) (P25103 whole entry): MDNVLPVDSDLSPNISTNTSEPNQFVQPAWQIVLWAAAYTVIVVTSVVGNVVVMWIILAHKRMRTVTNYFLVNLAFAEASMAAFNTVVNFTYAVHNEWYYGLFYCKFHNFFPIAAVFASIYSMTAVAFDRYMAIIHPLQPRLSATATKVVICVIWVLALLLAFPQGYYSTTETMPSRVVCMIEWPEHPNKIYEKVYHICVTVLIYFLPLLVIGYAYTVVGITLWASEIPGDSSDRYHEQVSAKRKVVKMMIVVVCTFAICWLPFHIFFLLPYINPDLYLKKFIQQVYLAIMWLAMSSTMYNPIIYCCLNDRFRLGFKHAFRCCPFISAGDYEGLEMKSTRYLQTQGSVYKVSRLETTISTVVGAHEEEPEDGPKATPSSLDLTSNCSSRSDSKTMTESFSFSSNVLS

CC(C)(C)c1ccc(CC[C@@](O)(CC(=O)O)C(=O)O)cc1 [Compound 2]
interaction/inhibition of ATP-citrate lyase (ATP-citrate lyase): no significant interaction/inhibition | inhibition at 100 µM [1]: < 10% | inhibition at 100 µM [2]: < 10% | Kp uu at 1 h, 1 µM [3]: 4.8 ± 0.5 | inhibition at 100 µM [4]: < 10% | inhibition at 100 µM [5]: < 10% | inhibition at 100 µM [6]: < 10% | inhibition at 100 µM [7]: < 10% | inhibition at 10 µM [8]: < 10% | IC50 [9]: > 200 µM | inhibition at 100 µM [10]: < 10% | inhibition at 100 µM [11]: < 10% | inhibition at 100 µM (Dopamine receptor 1 (D1)): < 10% | IC50 [12]: > 50 µM | inhibition at 100 µM [13]: < 10% | plasma glucose concentrations (DIO mice): modest but significant reductions | inhibition at 100 µM [14]: < 10% | inhibition at 100 µM [15]: < 10% | inhibition at 3 µM (CYP2D6): < 10% | interaction/inhibition of CYP2D6 [16]: no significant interaction/inhibition | interaction/inhibition of CYP2C8 [17]: no significant interaction/inhibition | inhibition at 3 µM (CYP2C8): < 10% | inhibition at 10 µM [18]: < 10%
